Assay results published in US20130296370A1, “COMPOSITION COMPRISING A PHOTOACTIVATABLE LARVICIDE” (UNIVERSITA DEGLI STUDI DI PADOVA, priority 2010, published 2013).

System: A. aegypti larvae
Assay: Larvicidal efficacy of C14 porphyrin-loaded PFP
Format: in vivo
Details: 3 hours irradiation
Method: Food particles (70 mg) were added at the time of introduction of the larvae (n=50, see methods for details). Arithmetic means of percent dead, dying and living larvae after 3 hours irradiation (intensity 1.0-4.0 mW/cm^2). Error bars represent standard deviations, (n=3 replicates of 50 larvae each).
Trays containing 5 μM C14 porphyrin solution and 70 mg PFP (wherein PFP means powdered food pellet (PFP) with final particle diameter of 5-500 μm diameter obtained by crushing a standard food pellet for laboratory rodents, namely 4RF18 GLP (Mucedola Srl, Italy) using an electric blender and then sieving at mesh diameter 500 μm) were incubated at 28±2° C. for 5 days in the dark. The solution was then filtered using Whatman qualitative filter papers (Whatman International Ltd., UK). The eluted C14 solution was conserved, and the incubated PFP retained on the filter paper was washed with 10 ml distilled water before further use. Experimental groups were designed as follows: 1) filtered, C14-incubated PFP in spring water (group A); 2) C14 solution eluate, added with 70 mg fresh PFP (group B); 3) 5 μM C14 solution incubated without PFP for 5 days in the dark, added with 70 mg fresh PFP (group C); 4) freshly prepared 5 μM C14 solution, added with 70 mg PFP (group D); 5) spring water added with 70 mg fresh PFP (control group). Fifty larvae, fasted for 24 hours, were added to each tray and incubated in the dark for 12 hours. The treated or untreated PFP was added at the time of introduction of the larvae, in all the experimental groups. The trays were then exposed to a light intensity of 1.0-4.0 mW/cm^2 and dead, dying and living larvae were counted 1 to 3 hours after the beginning of the irradiation.

[1] = group B: C14 solution eluate with 70 mg fresh PFP

Q: Which dying larvae [1] does the source give for `CCCCCCCCCCCCCC[n+]1ccc(-c2c3nc(c(-c4cc[n+](C)cc4)c4ccc([nH]4)c(-c4cc[n+](C)cc4)c4nc(c(-c5cc[n+](C)cc5)c5ccc2[nH]5)C=C4)C=C3)cc1.Cc1ccc(S(=O)(=O)[O-])cc1.Cc1ccc(S(=O)(=O)[O-])cc1.Cc1ccc(S(=O)(=O)[O-])cc1.Cc1ccc(S(=O)(=O)[O-])cc1` [C14, meso-tri(N-methyl-pyridyl), mono(N-tetradecyl-pyridyl)porphine] here?
A: 49.8%

Q: What about the mortality [1] of the same compound?
A: 38.4%

Q: And the mortality (group C: 5 μM C14 solution incubated 5 days in the dark without PFP, fresh PFP added)?
A: 78.2%

Q: What about the mortality (group D: freshly prepared 5 μM C14 solution with 70 mg PFP) of the same compound?
A: 87.1%
